From patent US9486536B2 (Immunomedics, Inc., priority 2013, dated 2016)

Assays:
[1] = molecular target: T1, CEACAM5 (Homo sapiens, UniProt P06731); experiment: antibody binding to target antigen after conjugation
T1 sequence (P06731 35-676): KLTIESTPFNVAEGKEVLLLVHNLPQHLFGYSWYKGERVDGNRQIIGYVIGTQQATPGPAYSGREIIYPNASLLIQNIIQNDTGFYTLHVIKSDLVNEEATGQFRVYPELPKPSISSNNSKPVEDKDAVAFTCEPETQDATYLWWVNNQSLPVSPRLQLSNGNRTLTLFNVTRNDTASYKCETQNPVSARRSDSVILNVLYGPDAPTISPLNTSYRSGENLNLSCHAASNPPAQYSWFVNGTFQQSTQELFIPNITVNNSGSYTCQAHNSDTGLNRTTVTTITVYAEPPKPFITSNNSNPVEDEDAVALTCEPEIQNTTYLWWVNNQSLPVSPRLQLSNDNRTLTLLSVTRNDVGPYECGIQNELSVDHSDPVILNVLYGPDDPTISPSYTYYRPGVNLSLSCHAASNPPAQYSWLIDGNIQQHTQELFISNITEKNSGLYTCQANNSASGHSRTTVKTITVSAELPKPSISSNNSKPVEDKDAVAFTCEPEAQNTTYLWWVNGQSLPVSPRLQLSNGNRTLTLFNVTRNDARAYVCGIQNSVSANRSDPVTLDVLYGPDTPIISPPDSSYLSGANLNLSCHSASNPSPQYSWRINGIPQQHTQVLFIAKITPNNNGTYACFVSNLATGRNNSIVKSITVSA
Method: Retention of antibody binding was confirmed by cell binding assays comparing binding of the conjugate to unconjugated antibody (Chari, 2008, Acc Chem Res 41:98-107). The potency of the conjugate was tested in a 4-day MTS assay using appropriate target cells.

[2] = molecular target: DDD of the RII form of PKA; settings: cited from earlier work
[3] = tested on: Capan-1 human pancreatic adenocarcinoma xenografts; experiment: therapy of Capan-1 xenografts in nude mice; assay type: in vivo; settings: for therapeutic response (FIG. 2): 2.25 mg/kg protein dose twice weekly×2 weeks, compared with hMN-14 conjugate
Method: FIG. 2. Therapy in nude mice bearing s.c. human tumor xenografts using 2.25 mg/kg protein dose (0.064 mg/kg of drug dose) of MAb-P2PDox conjugates twice weekly×2 weeks in nude mice with Capan-1 human pancreatic adenocarcinoma xenografts (n=5).
Tumors were measured and mice weighed twice a week.
At 63 days after Capan-1 tumor injection (with therapy starting at 1 days post-innoculation), 0 of 10 mice were alive in the saline control, 10 of 10 mice were alive in mice treated twice weekly×2 weeks with 45 μg of hPAM4-P2PDox, 2 of 10 mice were alive in mice treated twice weekly×2 weeks with 45 μg of hA20-P2PDox, 0 of 10 mice were alive in mice treated twice weekly×4 weeks with 250 μg of hPAM4-SN-38, and 0 of 10 mice were alive in mice treated twice weekly×4 weeks with 250 μg of h20-SN-38.

[4] = tested on: NCI-N87 human gastric carcinoma xenografts; experiment: therapy of NCI-N87 xenografts in nude mice; assay type: in vivo; settings: for therapeutic response (FIG. 3): 2.25 mg/kg protein dose twice weekly×2 weeks, compared with hMN-14 conjugate; for effect on tumors, one treatment cycle: 4×45 μg
Method: FIG. 3A. Therapy in nude mice bearing s.c. human tumor xenografts using 2.25 mg/kg protein dose (0.064 mg/kg of drug dose) of MAb-P2PDox conjugates twice weekly×2 weeks in nude mice (n=7) with NCI-N87 human gastric carcinoma xenografts.
Tumor size was determined by caliper measurements of length (L) and width (W) with tumor volume calculated as (L×W^2)/2. Tumors were measured and mice weighed twice a week. Mice were euthanized if their tumors reached >1 cm^3 in size, lost greater than 15% of their starting body weight, or otherwise became moribund. Statistical analysis for the tumor growth data was based on area under the curve (AUC) and survival time. Profiles of individual tumor growth were obtained through linear curve modeling. An f-test was employed to determine equality of variance between groups prior to statistical analysis of growth curves. A two-tailed t-test was used to assess statistical significance between all the various treatment groups and non-specific controls. For the saline control analysis a one-tailed t-test was used to assess significance. Survival studies were analyzed using Kaplan-Meier plots (log-rank analysis), using the Prism GraphPad Software (v4.03) software package (Advanced Graphics Software, Inc.; Encinitas, Calif.). All doses in preclinical experiments are expressed in antibody amounts. In terms of drug, 100 μg of antibody (5 mg/kg) in a 20-g mouse, for example, carries 1.4 μg-2.8 μg ([…]) of P2PDox equivalent dose when using an ADC with 3-6 drugs/IgG.
Using this dosing regimen, we examined the therapeutic effect of hRS7-P2PDox in 2 human tumor xenograft models, Capan-1 (pancreatic cancer) and NCI-N87 (gastric cancer). Therapy began 7 days after tumor transplantation in nude mice.
Anti-TROP-2 antibody conjugate, hRS7-P2PDox, was evaluated in nude mice bearing NCI-N87 human gastric cancer xenografts by administering a single bolus protein dose of 9 mg/kg, 6.75 mg/kg, 4.5 mg/kg, 2.25 mg/kg, or 1 mg/kg. The therapy was started when the mean tumor volume (mTV) was 0.256 cm^3.
Further in vivo efficacy studies were performed in nude mice implanted with NCI-N87 human gastric cancer xenografts (FIG. 13A-F).
The effect of varying dosage schedule on anti-tumor efficacy was examined (FIG. 14, FIG. 19A-G). The experiment began 9 days after tumor implantation when mean tumor volume for all groups was 0.383 cm^3, and ended on day 93 (84 days after initiation of therapy).

[5] = tested on: Chronic Lymphocytic Leukemia (CLL); experiment: treatment of CLL patients; assay type: in vivo, human
Method: Patients with previously untreated or relapsed CLL receive 4 doses of 70, 100 or 150 mg P2PDox-veltuzumab injected i.v. every two weeks. Only occasional mild to moderate transient injection reactions are seen and no other safety issues are observed, except for neutropenia, which can be controlled by interrupting therapy until improved or administering a G-CSF leukocyte stimulator, as per conventional practice. […] Objective responses are observed at all dose levels of P2PDox-veltuzumab, but with particularly high responses of 30% (mostly partial responses) at the highest dose. All serum samples evaluated for human anti-veltuzumab antibody (HAHA) are negative.

[6] = tested on: HIV-1IIIB/MuLV infected splenocytes; experiment: HIV-1/MuLV infected cell challenge in mice; assay type: in vivo; settings: doses of 100-200 μg
Method: P4/D10-P2PDox is tested in vitro for its efficacy in eliminating HIV-1-infected cells among non-infected cells and in a mouse model by removing HIV-1/MuLV (murine leukemia virus) infected syngeneic cells from the intraperitoneal cavity.
A human T-cell line, CEM-1B, with a genetically integrated MuLV genome is infected with HIV-1IIIB, which leads to the production of pseudoviruses with the HIV-1 genome and the MuLV envelope (Adang et al., PNAS USA 1999, 96:12749-753; Hinkula et al., Cells Tissues Organs 2004, 177:169-184). These virus supernatants are used to infect splenocytes from C57B1/6×DBA F1 K^b/d mice transgenic for HLA-A201. Isogenic mice are challenged with HIV-1IIIB/MuLV infected splenocytes i.p. and are immediately given conjugated antibodies or free antibodies i.p. Ten days after challenge, mice are sacrificed and peritoneal cells collected. Peritoneal cells are pelleted and added to 1×10^6 HIV susceptible Jurkat T-cells or human PBMC grown in 24-well plates. From these secondary cultures, supernatant is removed and fresh medium added every 3-4 days. The amount of infectious HIV recovered in the supernatant is measured for 3 weeks by p24 ELISA.
To test the efficacy of P4/D10-P2PDox in vivo, mice are given isogeneic HIV/MuLV-infected cells together with conjugates intraperitoneally.

[7] = MTD study of hLL1 conjugates in mice
Method: The MTD of multiple injections, at a schedule of every four days for a total of four injections (q4dx4) was then determined, using protein doses between 25 μg to 150 μg per injection. At these doses, a cumulative dose of between 100 and 600 μg was given to the animals.

[8] = tested on: Capan-1, BxPC-3 and AsPC-1 human pancreatic tumor lines and AGS, NCI-N87 and LS147T human gastric and colonic tumor lines; experiment: cytotoxicity of P2PDox-mAb conjugates to target cells; assay type: cell-based; settings: not shown
Text: The cytotoxicity of P2PDox-mAb conjugates to target cells was examined. hRS7-P2PDox and hMN-15-P2PDox were cytotoxic to MDA-MB-468, AG S, NCI-N87 and Capan-1 solid tumor cell lines (not shown). hMN-14-P2PDox was cytotoxic to Capan-1, BxPC-3 and AsPC-1 human pancreatic tumor lines and AGS, NCI-N87 and LS147T human gastric and colonic tumor lines (not shown). hLL2-P2PDOx was cytotoxic to Daudi, Raji, Ramos and JVM-3 hematopoietic tumor lines (not shown). IC50 values for the conjugates were in the nanomolar concentration range (not shown).

[9] = tested on: Trop-2-positive human pancreatic adenocarcinoma cell line (BxPC-3); experiment: ADCC with PBMCs, effector to target ratio 100:1; assay type: cell-based; settings: 33.3 nM
Method: The ADCC activity of various hRS7-ADC conjugates was determined in comparison to hRS7 IgG (FIG. 17). PBMCs were purified from blood purchased from the Blood Center of New Jersey. A Trop-2-positive human pancreatic adenocarcinoma cell line (BxPC-3) was used as the target cell line with an effector to target ratio of 100:1. ADCC mediated by hRS7 IgG was compared to hRS7-Pro-2-PDox, hRS7-CL2A-SN-38, and the reduced and capped hRS7-NEM. All were used at 33.3 nM.

[10] = tested on: metastatic ductal adenocarcinoma of the pancreas; experiment: treatment of a patient with metastatic pancreatic cancer; assay type: in vivo, human
Method: A person with metastatic ductal adenocarcinoma of the pancreas, who has relapsed after prior therapies with FOLFIRINOX followed by Nab-taxol (Abraxane®) plus gemcitabine is given PAM4-P2PDox ADC at a dose of 120 mg every other week for 4 courses, and after a 3-week delay, another course of 2 injections 2 weeks apart are given intravenously.

[11] = twice weekly×2 weeks with 45 μg

## P2PDox-hMN-24: P2PDox conjugate printed as hMN-24 (anti-CEACAM5)
[1]
  effect of conjugation on antibody binding: lack of effect of conjugation on antibody binding to target antigen

## QIEYLAKQIVDNAIQQA [AKAP-IS]
[2]; read-out: binding constant for DDD
  Kd: 400 pM

## QIEYVAKQIVDYAIHQA [SuperAKAP-IS]
[2]
  selectivity for the RII isoform of PKA compared with the RI isoform: five order of magnitude higher selectivity

## hA20-P2PDox
[3]
  therapeutic response (FIG. 2): ineffective
[3]; [11]
  mice alive at 63 days after tumor injection: 2 of 10
[4]
  therapeutic response (FIG. 3): ineffective
  effect on tumors, one treatment cycle: little effect on tumor progression
[4]; same dosage schedules (45 μg q4dx4, 90 μg weekly×2, 180 μg single)
  effect on survival: no effect on survival
[5]; 150 mg i.v. every two weeks, 4 doses, mostly partial responses
  objective responses at the highest dose: 30%
[5]; all dosage levels
  B-cell and CLL ablation: Rapid B-cell and CLL ablation
[5]; human, in vivo
  human anti-veltuzumab antibody (HAHA) in serum samples: negative

## hLL1-P2PDox
[4]
  effect on tumors, one treatment cycle: little effect on tumor progression
[6]
  protection by control conjugates: None of the P2PDox-conjugated control antibodies (hLL1 or hRS7) provide any protection
[7]; 25 μg i.v. q4dx4
  signs of toxicity (weight loss): no signs of toxicity
[7]; not shown
  potency compared with 2-PDox conjugate of hLL1 in MTD study: much more potent
[7]; protein dose, every 4 days for 2 weeks (q4dx4), after analysis and repetition of the experiment
  MTD for fractionated dosing: 45 µg
[7]; q4dx4, from this experiment
  MTD for multiple injections: 25 µg
[7]; single injection (not shown)
  dose tolerated when administered as a single injection: 100 µg

## hMN-14-P2PDox
[4]
  effect on tumors, one treatment cycle: little effect on tumor progression
[8]
  cytotoxicity: cytotoxic

## hRS7 IgG: unconjugated humanized anti-TROP-2 antibody
[9]
  specific lysis (ADCC): 8.5%

## hRS7-SN-38 [reference compound]
[3]
  therapeutic response (FIG. 2): better therapeutic responses
[4]
  therapeutic response (FIG. 3): better therapeutic responses

B1: hPAM4-P2PDox (conjugate, chains of the INN, looked up)
VH: QVQLQQSGAEVKKPGASVKVSCEASGYTFPSYVLHWVKQAPGQGLEWIGYINPYNDGTQYNEKFKGKATLTRDTSINTAYMELSRLRSDDTAVYYCARGFGGSYGFAYWGQGTLVTVSS
VL: DIQLTQSPSSLSASVGDRVTMTCSASSSVSSSYLYWYQQKPGKAPKLWIYSTSNLASGVPARFSGSGSGTDFTLTISSLQPEDSASYFCHQWNRYPYTFGGGTRLEIK
modifications: P2PDox (pro-2-pyrrolinodoxorubicin) payload
[3]; not shown
  inhibition of tumor growth compared with the SN-38 conjugate of the same antibody: more effective at inhibiting growth
[3]; [11]
  mice alive at 63 days after tumor injection: 10 of 10
[10]; 120 mg every other week, CT at 8 weeks
  shrinkage of the sum of the 3 target lesions in the liver: 18%
[10]; baseline value of 12,400
  reduction of CA19-9 blood titer: 55%
[10]; recovers before the second course
  hematological toxicity after the first course: Grade 3 neutropenia

B2: hPAM4-SN-38: hPAM4 antibody conjugated to SN-38 (conjugate, chains of the INN, looked up)
VH: QVQLQQSGAEVKKPGASVKVSCEASGYTFPSYVLHWVKQAPGQGLEWIGYINPYNDGTQYNEKFKGKATLTRDTSINTAYMELSRLRSDDTAVYYCARGFGGSYGFAYWGQGTLVTVSS
VL: DIQLTQSPSSLSASVGDRVTMTCSASSSVSSSYLYWYQQKPGKAPKLWIYSTSNLASGVPARFSGSGSGTDFTLTISSLQPEDSASYFCHQWNRYPYTFGGGTRLEIK
modifications: SN-38 conjugate
[3]; twice weekly×4 weeks with 250 μg
  mice alive at 63 days after tumor injection: 0 of 10
